Results from paper PMC9944328 (Nature Communications, 2023).

Tests used:
[1] = target: SSTR3 mutants (Homo sapiens, UniProt P32745); experiment: SSTRs Gi-mediated cAMP inhibition, GloSensor, HEK293 (SSTR3 mutants); assay type: cell-based; design: Bottom / Top / Span / Top (best-fit): unit not given here; conditions: for LogEC50 (best-fit) / Top (best-fit): cAMP inhibition, SSTR3 N101V
Method: (§1) The levels of the intracellular 3′, 5′-cyclic AMP (cAMP) were measured by the GloSensor cAMP assay (Promega) as described in the previous studies[28],[41] which has been widely used. The human full-length SSTRs and mutants were cloned into the pcDNA3.1+ vector with a HA signal sequence followed by a Flag tag at the N-terminus. […] Cells were then co-transfected with SSTR wild-type or mutants and GloSensor plasmids. After 24 h of transfection, the cells were dissociated with TrypLE™ Express Enzyme (1X) (Thermo Fisher Scientific) and collected by centrifugation at 500 × g for 5 min. Then the collected cells were suspended in Hank’s balanced salt solution [HBSS (Thermo Fisher Scientific)] supplemented with […] potassium salt solution (YEASEN), and then the suspension cells were seeded into 96-well plates with 90 μl/well. After incubating at room temperature for 40 min, 5 μM forskolin and ligands diluted in HBSS were added to each well and the plates were incubated at room temperature for 15 min. […] signals were measured using the Synergy H1 microplate reader (BioTek) and the data presented are means of at least three independent experiments.

[2] = target: T1, SSTR3 mutants (Homo sapiens, UniProt P32745, H192T); experiment: as above; assay type: cell-based; design: Bottom / Top / Span / Top (best-fit): unit not given here; conditions: for LogEC50 (best-fit) / Top (best-fit): cAMP inhibition, SSTR3 H192T
T1 construct: The human full-length SSTRs and mutants were cloned into the pcDNA3.1+ vector; expressed in transfected cells; host or cells: HEK293 (ATCC, CRL-1573)
T1 sequence (P32745 whole entry H192T): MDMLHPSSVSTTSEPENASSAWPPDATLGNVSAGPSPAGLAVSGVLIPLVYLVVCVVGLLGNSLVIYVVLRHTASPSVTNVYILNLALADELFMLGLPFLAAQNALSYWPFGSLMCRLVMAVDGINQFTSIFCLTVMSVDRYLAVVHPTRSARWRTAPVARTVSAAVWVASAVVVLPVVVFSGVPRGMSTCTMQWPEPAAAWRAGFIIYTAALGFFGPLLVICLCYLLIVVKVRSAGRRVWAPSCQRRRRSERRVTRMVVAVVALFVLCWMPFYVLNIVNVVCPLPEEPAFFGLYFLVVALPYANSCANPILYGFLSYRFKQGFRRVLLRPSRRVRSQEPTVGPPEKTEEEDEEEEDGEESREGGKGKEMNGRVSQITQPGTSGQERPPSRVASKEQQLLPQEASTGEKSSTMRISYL
Method: as §1

[3] = system: SSTR2; experiment: SSTR2 internalization by ELISA, HEK293, 30 min 37 °C (wild-type); assay type: cell-based, human; conditions: same concentration for both drugs; also confocal and Bystander BRET
Method: HEK293 cells were seeded into 96-well microplates at a density of 4 × 10^4 cells/well and cultured for 24 h at 37 °C with 5% CO2 and were transfected using the same procedure as the cAMP accumulation assay. The plates were washed with washing buffer (PBS) the day after transfection, and were fixed with 4% formalin at room temperature for 30 min. Cells were washed with washing buffer and blocked with PBS supplemented with 5% BSA for 1 h at room temperature. After that, cells were incubated with anti-Flag antibody (1:1000 diluted with PBS containing 5% BSA, Proteintech: 66008-4-Ig) for 1 h at room temperature. After 1 h incubation, cells were washed with washing buffer and incubating with HRP-conjugated secondary antibody for 2 h at room temperature. After incubating and washing, 50 μl of chromogenic solution was added to each well, and reacted at room temperature for 10 min, and then 0.5 M HCl were added to stop the reaction.
All data presented are means at least three independent experiments.

[4] = system: SSTR2; experiment: Bias factor (β value), Gi cAMP inhibition versus β-arrestin recruitment; assay type: cell-based, human
Method: as §1
The NanoBiT β-arrestin 1 recruitment assays were carried out according to the method described previously. […] Human full-length SSTR wild-type and mutant vectors were C-terminally fused with a 15-amino acid flexible linker and the small fragment (SmBiT). HEK293 cells were seeded into six-well microplates at a density of 1.0 × 10^6 cells/well and cultured for 24 h at 37 °C with 5% CO2. After that, cells were co-transfected with pcDNA3.1+ vectors encoding SSTR wild-type or mutants and human β-arrestin 1. After transfecting for 24 h, the transfected cells were suspended and seeded into white 96-well plates, and then cultured at 37 °C overnight. After that the medium in each well was exchanged for 90 μl of 0.01% bovine serum albumin containing 20 μl of 50 μM coelenterazine h (Carbosynth) diluted in the HBSS assay buffer and incubated for 40 min at room temperature. Then, ligands diluted in the assay buffer was added to each well and the luminescence intensity was measured using the Synergy H1 microplate reader and detected at room temperature in a time period. All data presented are means of at least three independent experiments.
All data in this study were analyzed using GraphPad Prism 7 and were expressed as the error bars and the standard error of means ± SEM from at least n = 3 biologically independent experiments performed in triplicate. All curve data were normalized to the maximal wild-type and processed using a sigmoidal dose response curve in GraphPad Prism 7. Statistical differences between conditions were determined by one-way of variance ANOVA with Dunnett’s test or T-test.

[5] = target: SSTR2 (Homo sapiens, UniProt P30874); experiment: Bystander BRET endosomal trafficking (β-arrestin 1-Nluc, FYVE-mVenus), HEK293 (SSTR2 wild-type); assay type: cell-based; design: The human full-length SSTRs and mutants were cloned into the pcDNA3.1+ vector; expressed in transfected cells; host or cells: HEK293;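 note: HEK293 cells coexpressing Nluc-tagged β-arrestin 1 and mVenus-fused FYVE endosomal marker, bystander BRET ratio read after ligand addition, coelenterazine h substrate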
Sequence of SSTR2 (Homo sapiens, UniProt P30874) (P30874 whole entry, the tested form may be a part): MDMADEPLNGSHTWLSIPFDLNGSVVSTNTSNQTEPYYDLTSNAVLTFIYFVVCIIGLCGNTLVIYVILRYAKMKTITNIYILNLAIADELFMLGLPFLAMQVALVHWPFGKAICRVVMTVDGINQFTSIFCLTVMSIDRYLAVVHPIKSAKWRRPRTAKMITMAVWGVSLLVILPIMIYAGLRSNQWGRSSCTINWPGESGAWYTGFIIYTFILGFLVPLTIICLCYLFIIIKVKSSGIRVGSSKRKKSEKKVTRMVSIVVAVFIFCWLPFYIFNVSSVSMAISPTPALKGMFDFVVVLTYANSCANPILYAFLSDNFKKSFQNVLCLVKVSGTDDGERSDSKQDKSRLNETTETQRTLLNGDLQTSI
Method: Wild-type or mutant SSTR2, β-arrestin 1-Nluc and FYVE-mVenus were co-transfected in HEK293 cells at a ratio of 1:0.5:4 on six-well plates. The next day, the transfected cells were plated on white 96-well and incubated overnight, and then cells were incubated with 90 µL HBSS containing 20 mM HEPES and coelenterazine h (5 µM) at room temperature for 40 min. After incubation, ligand was added and the signal was measured using the Synergy H1 microplate reader (BioTek) to determine a BRET ratio.

[6] = Best-fit values, WT-1 (N276A set)
[7] = Best-fit values, WT-1 (P220A, I130A, F265A sets)
[8] = Best-fit values, WT-1 (R140A, Y312A sets)
[9] = Best-fit values, WT-1/-3 (W269A set), WT-2 (N276A set), WT-1 (I284A set)
[10] = Best-fit values, WT-2 (P220A, I130A, F265A sets)
[11] = Best-fit values, WT-2 (R140A, Y312A sets)
[12] = Best-fit values, WT-2 (W269A, I284A sets)
[13] = Best-fit values, WT-3 (N276A set)
[14] = best-fit, SSTR2 WT-1 (control in F294A block), run 1
[15] = best-fit, SSTR2 WT-1 (control in K291A block), run 1
[16] = best-fit, SSTR2 WT-2 (control in F294A block), run 2
[17] = best-fit, SSTR2 WT-2 (control in K291A block), run 2

Sequence of SSTR3 mutants (Homo sapiens, UniProt P32745) (P32745 whole entry N104V): as the sequence (P32745 whole entry H192T) above, with N104V, T192H counted along it

For `C[C@@H](O)[C@@H]1NC(=O)[C@H](CCCCN)NC(=O)[C@@H](Cc2c[nH]c3ccccc23)NC(=O)[C@H](Cc2ccccc2)NC(=O)[C@@H](NC(=O)[C@H](N)Cc2ccccc2)CSSC[C@@H](C(=O)N[C@H](CO)[C@@H](C)O)NC1=O` [octreotide], the Emax ([1]; HEK293) was 120 ± 3.57%, the “LogEC50 (best-fit)” value ([1]; run 1) was -8.602 and the “Top (best-fit)” value ([1]; run 1) was 99.48. The “LogEC50 (best-fit)” value ([1]; run 2) was -8.875, the “Top (best-fit)” value ([1]; run 2) was 120.3 and the “LogEC50 (best-fit)” value ([1]; run 3) was -8.73. The “Top (best-fit)” value ([1]; run 3) was 98.22, the “LogEC50 (best-fit)” value ([1]; run 4) was -9.386 and the “Top (best-fit)” value ([1]; run 4) was 101.4. For the same compound, the “EC50 of mutant versus wild-type” value ([2]; H192(45.51)T mutant of SSTR3) was “retained a similar EC50 as wild-type receptor”, the Emax ([2]; HEK293, Suppl. Tables 4/5, SSTR3 H192(45.51)T, n=3, read-out: Emax) was 92.4 ± 10.2% and the “LogEC50 (best-fit)” value ([2]; run 1) was -7.081. The “Top (best-fit)” value ([2]; run 1) was 99.15, the “LogEC50 (best-fit)” value ([2]; run 2) was -7.677 and the “Top (best-fit)” value ([2]; run 2) was 107.4. For the same compound, the “LogEC50 (best-fit)” value ([2]; run 3) was -7.174, the “Top (best-fit)” value ([2]; run 3) was 100.5 and the “LogEC50 (best-fit)” value ([2]; run 4) was -7.758. For the same compound, the “Top (best-fit)” value ([2]; run 4) was 101.2, the “Internalization of wild-type SSTR2” value [3] was “obviously internalized” and the “Effect of microswitch mutations” value ([4]; CWxP, PIF, DRY and NPxxY motif mutants versus wild-type SSTR2) was “decreased the potency of β-arrestin recruitment more markedly than the activation ability of Gi signaling”. For the same compound, the “Effect of mutants on both signals” value ([4]; D122(3.32) and Q126(3.36) mutants) was “markedly affected both β-arrestin and Gi signal”, the Bottom [5, 6] was -3.249 and the Span [5, 6] was 103. For the same compound, the Top [5, 6] was 99.78, the Bottom [5, 7] was 16.02 and the Span [5, 7] was 79.41. For the same compound, the Top [5, 7] was 95.44, the Bottom [5, 8] was -2.667 and the Span [5, 8] was 105.4. The Top [5, 8] was 102.8, the Span ([5]; Best-fit values, WT-1/-3 (W269A set), WT-2 (N276A set)) was 83.76 and the Bottom [5, 9] was 4.545. For the same compound, the Top [5, 9] was 88.3, the Bottom [5, 10] was 0.5214 and the Span [5, 10] was 104.2. It also gave a Top [5, 10] of 104.7, a Bottom [5, 11] of -1.531 and a Span [5, 11] of 100.4. It also gave a Top [5, 11] of 98.89, a Span ([5]; Best-fit values, WT-2 (W269A set)) of 83.11 and a Bottom [5, 12] of 7.543. The Top [5, 12] was 90.66, the Bottom [5, 13] was -1.634 and the Span [5, 13] was 102.4. For the same compound, the Top [5, 13] was 100.7, the Emax ([5]; HEK293, Bystander BRET, SSTR2-WT, n=6, read-out: Emax) was 100% and the Bottom [5, 14] was 14.58. For the same compound, the Span [5, 14] was 85.75, the Top [5, 14] was 100.3 and the Span ([5]; best-fit, SSTR2 WT-1 (control in I284A and K291A blocks), run 1) was 83.76. The Bottom [5, 15] was 4.545, the Top [5, 15] was 88.3 and the Bottom [5, 16] was 19.75. For the same compound, the Span [5, 16] was 76.3, the Top [5, 16] was 96.05 and the Span ([5]; best-fit, SSTR2 WT-2 (control in I284A and K291A blocks), run 2) was 83.11. It also gave a Bottom [5, 17] of 7.543, a Top [5, 17] of 90.66 and a Bottom ([5]; best-fit, SSTR2 WT-3 (control in F294A block), run 3) of -1.634.
